Laboratory results as given in BindingDB's records for doi:10.1016/j.bmcl.2006.04.011 (Ambrilia Biopharma, 2006).

What follows are compounds tested against T1, Dimer of Gag-Pol polyprotein [501-599] (Human immunodeficiency virus 1, UniProt P03367) (assay: Protease Inhibition Assay). Settings: not given.
T1 construct: 501-599
Protocol: HIV-1 protease activity was measured by a continuous fluorometric assay. The proteolytic activity can be monitored by the increase in fluorescence intensity, and the protease products were analyzed by HPLC. IC50 values were determined from a dose-response curve, whereas Ki values were obtained by fitting initial rates to a tight-binding inhibition equation.
`CC(C)CN(C(CO)CCCCNC(=O)[C@@H](N)C(c1ccccc1)c1ccccc1)S(=O)(=O)c1ccc(N)cc1` (stereo partly drawn) [(2S)-2-amino-N-[(5R)-5-[(4-aminobenzene)(2-methylpropyl)sulfonamido]-6-hydroxyhexyl]-3,3-diphenylpropanamide] was tested, and the IC50 was 0.5 nM and the Ki was 0.56 nM. For `CC(C)CN(C(CO)CCCCNC(=O)[C@@H](NC(=O)C1CCCCC1)C(c1ccccc1)c1ccccc1)S(=O)(=O)c1ccc(N)cc1` (stereo partly drawn) [(2S)-N-[(5R)-5-[(4-aminobenzene)(2-methylpropyl)sulfonamido]-6-hydroxyhexyl]-2-(cyclohexylformamido)-3,3-diphenylpropanamide], the IC50 was < 3.8 nM. With `CC(C)CN(C(CO)CCCCNC(=O)[C@@H](NC(=O)C1CC1)C(c1ccccc1)c1ccccc1)S(=O)(=O)c1ccc(N)cc1` (stereo partly drawn) [(2S)-N-[(5R)-5-[(4-aminobenzene)(2-methylpropyl)sulfonamido]-6-hydroxyhexyl]-2-(cyclopropylformamido)-3,3-diphenylpropanamide] the IC50 was 0.43 nM and the Ki was 0.45 nM. In the case of `CC(C)CN(C(CO)CCCCNC(=O)[C@@H](NC(=O)N1CCOCC1)C(c1ccccc1)c1ccccc1)S(=O)(=O)c1ccc(N)cc1` (stereo partly drawn) [(2S)-N-[(5R)-5-[(4-aminobenzene)(2-methylpropyl)sulfonamido]-6-hydroxyhexyl]-2-(morpholin-4-ylcarbonylamino)-3,3-diphenylpropanamide], the IC50 is reported as 0.51 nM and the Ki is reported as 0.55 nM. Work on `CC(C)CN(C(CO)CCCCNC(=O)[C@@H](NC(=O)c1ccccc1O)C(c1ccccc1)c1ccccc1)S(=O)(=O)c1ccc(N)cc1` (stereo partly drawn) [(2S)-N-[(5R)-5-[(4-aminobenzene)(2-methylpropyl)sulfonamido]-6-hydroxyhexyl]-2-[(2-hydroxyphenyl)formamido]-3,3-diphenylpropanamide] yielded an IC50 of 0.63 nM and a Ki of 0.58 nM. With `Cc1ncccc1C(=O)N[C@H](C(=O)NCCCCC(CO)N(CC(C)C)S(=O)(=O)c1ccc(N)cc1)C(c1ccccc1)c1ccccc1` (stereo partly drawn) [(2S)-N-[(5R)-5-[(4-aminobenzene)(2-methylpropyl)sulfonamido]-6-hydroxyhexyl]-2-[(2-methylpyridin-3-yl)formamido]-3,3-diphenylpropanamide] the IC50 was 0.4 nM and the Ki was 0.4 nM. For `CC(C)CN(C(CO)CCCCNC(=O)[C@@H](NC(=O)c1ccc([N+](=O)[O-])c(O)c1)C(c1ccccc1)c1ccccc1)S(=O)(=O)c1ccc(N)cc1` (stereo partly drawn) [(2S)-N-[(5R)-5-[(4-aminobenzene)(2-methylpropyl)sulfonamido]-6-hydroxyhexyl]-2-[(3-hydroxy-4-nitrophenyl)formamido]-3,3-diphenylpropanamide], the IC50 was 0.33 nM and the Ki was 0.33 nM. Work on `CC(C)CN(C(CO)CCCCNC(=O)[C@@H](NC(=O)c1cccc(O)c1)C(c1ccccc1)c1ccccc1)S(=O)(=O)c1ccc(N)cc1` (stereo partly drawn) [(2S)-N-[(5R)-5-[(4-aminobenzene)(2-methylpropyl)sulfonamido]-6-hydroxyhexyl]-2-[(3-hydroxyphenyl)formamido]-3,3-diphenylpropanamide] yielded an IC50 of 0.4 nM and a Ki of 0.4 nM. For `CC(C)CN(C(CO)CCCCNC(=O)[C@@H](NC(=O)c1ncccc1O)C(c1ccccc1)c1ccccc1)S(=O)(=O)c1ccc(N)cc1` (stereo partly drawn) [(2S)-N-[(5R)-5-[(4-aminobenzene)(2-methylpropyl)sulfonamido]-6-hydroxyhexyl]-2-[(3-hydroxypyridin-2-yl)formamido]-3,3-diphenylpropanamide], the IC50 was 0.9 nM and the Ki was 0.7 nM. `COc1cc(C(=O)N[C@H](C(=O)NCCCCC(CO)N(CC(C)C)S(=O)(=O)c2ccc(N)cc2)C(c2ccccc2)c2ccccc2)ccc1O` (stereo partly drawn) [(2S)-N-[(5R)-5-[(4-aminobenzene)(2-methylpropyl)sulfonamido]-6-hydroxyhexyl]-2-[(4-hydroxy-3-methoxyphenyl)formamido]-3,3-diphenylpropanamide] gave an IC50 of 0.5 nM and a Ki of 0.45 nM. Work on `CC(C)CN(C(CO)CCCCNC(=O)[C@@H](NC(=O)c1ccc(O)c([N+](=O)[O-])c1)C(c1ccccc1)c1ccccc1)S(=O)(=O)c1ccc(N)cc1` (stereo partly drawn) [(2S)-N-[(5R)-5-[(4-aminobenzene)(2-methylpropyl)sulfonamido]-6-hydroxyhexyl]-2-[(4-hydroxy-3-nitrophenyl)formamido]-3,3-diphenylpropanamide] yielded an IC50 of 0.56 nM and a Ki of 0.48 nM. With `CC(C)CN(C(CO)CCCCNC(=O)[C@@H](NC(=O)c1ccc(O)cc1)C(c1ccccc1)c1ccccc1)S(=O)(=O)c1ccc(N)cc1` (stereo partly drawn) [(2S)-N-[(5R)-5-[(4-aminobenzene)(2-methylpropyl)sulfonamido]-6-hydroxyhexyl]-2-[(4-hydroxyphenyl)formamido]-3,3-diphenylpropanamide] the IC50 was 0.53 nM and the Ki was 0.47 nM. With `CC(C)CN(C(CO)CCCCNC(=O)[C@@H](NC(=O)c1ccc(N)nc1)C(c1ccccc1)c1ccccc1)S(=O)(=O)c1ccc(N)cc1` (stereo partly drawn) [(2S)-N-[(5R)-5-[(4-aminobenzene)(2-methylpropyl)sulfonamido]-6-hydroxyhexyl]-2-[(6-aminopyridin-3-yl)formamido]-3,3-diphenylpropanamide] the IC50 was 0.4 nM and the Ki was 0.5 nM. `CC(C)CN(C(CO)CCCCNC(=O)[C@@H](NC(=O)c1ccc(=O)[nH]c1)C(c1ccccc1)c1ccccc1)S(=O)(=O)c1ccc(N)cc1` (stereo partly drawn) [(2S)-N-[(5R)-5-[(4-aminobenzene)(2-methylpropyl)sulfonamido]-6-hydroxyhexyl]-2-[(6-hydroxypyridin-3-yl)formamido]-3,3-diphenylpropanamide] gave an IC50 of 0.5 nM and a Ki of 0.4 nM. In the case of `Cc1ccc(C(=O)N[C@H](C(=O)NCCCCC(CO)N(CC(C)C)S(=O)(=O)c2ccc(N)cc2)C(c2ccccc2)c2ccccc2)cn1` (stereo partly drawn) [(2S)-N-[(5R)-5-[(4-aminobenzene)(2-methylpropyl)sulfonamido]-6-hydroxyhexyl]-2-[(6-methylpyridin-3-yl)formamido]-3,3-diphenylpropanamide], the IC50 is reported as 0.4 nM and the Ki is reported as 0.5 nM. `CC(C)CN(C(CO)CCCCNC(=O)[C@@H](NC(=O)N(C)C)C(c1ccccc1)c1ccccc1)S(=O)(=O)c1ccc(N)cc1` (stereo partly drawn) [(2S)-N-[(5R)-5-[(4-aminobenzene)(2-methylpropyl)sulfonamido]-6-hydroxyhexyl]-2-[(dimethylcarbamoyl)amino]-3,3-diphenylpropanamide] showed an IC50 of 0.44 nM and a Ki of 0.58 nM. Compound `CC(=O)N[C@H](C(=O)NCCCCC(CO)N(CC(C)C)S(=O)(=O)c1ccc(N)cc1)C(c1ccccc1)c1ccccc1` (stereo partly drawn) [(2S)-N-[(5R)-5-[(4-aminobenzene)(2-methylpropyl)sulfonamido]-6-hydroxyhexyl]-2-acetamido-3,3-diphenylpropanamide] has an IC50 of 1.5 nM. Work on `CC(C)CN(C(CO)CCCCNC(=O)[C@@H](NC(=O)c1ccc[nH]1)C(c1ccccc1)c1ccccc1)S(=O)(=O)c1ccc(N)cc1` (stereo partly drawn) [(2S)-N-[(5R)-5-[(4-aminobenzene)(2-methylpropyl)sulfonamido]-6-hydroxyhexyl]-3,3-diphenyl-2-(1H-pyrrol-2-ylformamido)propanamide] yielded an IC50 of 0.43 nM and a Ki of 0.47 nM. `CC(C)CN(C(CO)CCCCNC(=O)[C@@H](NC(=O)c1ccccn1)C(c1ccccc1)c1ccccc1)S(=O)(=O)c1ccc(N)cc1` (stereo partly drawn) [(2S)-N-[(5R)-5-[(4-aminobenzene)(2-methylpropyl)sulfonamido]-6-hydroxyhexyl]-3,3-diphenyl-2-(pyridin-2-ylformamido)propanamide] gave an IC50 of 0.46 nM and a Ki of 0.44 nM. For `CC(C)CN(C(CO)CCCCNC(=O)[C@@H](NC(=O)c1cccnc1)C(c1ccccc1)c1ccccc1)S(=O)(=O)c1ccc(N)cc1` (stereo partly drawn) [(2S)-N-[(5R)-5-[(4-aminobenzene)(2-methylpropyl)sulfonamido]-6-hydroxyhexyl]-3,3-diphenyl-2-(pyridin-3-ylformamido)propanamide], the IC50 was 0.68 nM and the Ki was 0.55 nM. `CC(C)CN(C(CO)CCCCNC(=O)[C@@H](NC(=O)c1ccncc1)C(c1ccccc1)c1ccccc1)S(=O)(=O)c1ccc(N)cc1` (stereo partly drawn) [(2S)-N-[(5R)-5-[(4-aminobenzene)(2-methylpropyl)sulfonamido]-6-hydroxyhexyl]-3,3-diphenyl-2-(pyridin-4-ylformamido)propanamide] was tested, and the IC50 was 0.65 nM and the Ki was 0.66 nM. For `CC(C)CN(C(CO)CCCCNC(=O)[C@@H](NC(=O)Cc1cccnc1)C(c1ccccc1)c1ccccc1)S(=O)(=O)c1ccc(N)cc1` (stereo partly drawn) [(2S)-N-[(5R)-5-[(4-aminobenzene)(2-methylpropyl)sulfonamido]-6-hydroxyhexyl]-3,3-diphenyl-2-[1-(pyridin-3-yl)acetamido]propanamide], the IC50 was 0.24 nM and the Ki was 0.34 nM.

Same assay, conditions: pH 4.7; 30 °C
In the case of `COC(=O)N1Cc2ccccc2C=C1C(=O)NCCCCC(CO)N(CC(C)C)S(=O)(=O)c1ccc(N)cc1` (configuration not stated) [lysine sulfonamide analogue 8], the IC50 is reported as 130 nM. In the case of `COC(=O)N[C@@H](Cc1ccccc1-c1ccccc1)C(=O)NCCCCC(CO)N(CC(C)C)S(=O)(=O)c1ccc(N)cc1` (stereo partly drawn) [methyl N-[(1S)-1-{[(5R)-5-[(4-aminobenzene)(2-methylpropyl)sulfonamido]-6-hydroxyhexyl]carbamoyl}-2-(2-phenylphenyl)ethyl]carbamate], the IC50 is reported as 0.521 nM. Compound `COC(=O)N[C@@H](Cc1cccc2ccccc12)C(=O)NCCCCC(CO)N(CC(C)C)S(=O)(=O)c1ccc(N)cc1` (stereo partly drawn) [methyl N-[(1S)-1-{[(5R)-5-[(4-aminobenzene)(2-methylpropyl)sulfonamido]-6-hydroxyhexyl]carbamoyl}-2-(naphthalen-1-yl)ethyl]carbamate] has an IC50 of 1.2 nM. With `COC(=O)N[C@@H](Cc1ccc2ccccc2c1)C(=O)NCCCCC(CO)N(CC(C)C)S(=O)(=O)c1ccc(N)cc1` (stereo partly drawn) [methyl N-[(1S)-1-{[(5R)-5-[(4-aminobenzene)(2-methylpropyl)sulfonamido]-6-hydroxyhexyl]carbamoyl}-2-(naphthalen-2-yl)ethyl]carbamate] the IC50 was 1.2 nM. In the case of `COC(=O)N[C@@H](Cc1ccccc1)C(=O)NCCCCC(CO)N(CC(C)C)S(=O)(=O)c1ccc(N)cc1` (stereo partly drawn) [methyl N-[(1S)-1-{[(5R)-5-[(4-aminobenzene)(2-methylpropyl)sulfonamido]-6-hydroxyhexyl]carbamoyl}-2-phenylethyl]carbamate], the IC50 is reported as 12 nM.
